Results reported in publication PMC3297363 (Journal of Medicinal Chemistry, 2012).
Like-named read-outs stand apart in the source and are kept apart here.

How the values were obtained:
[1] = system: 3D7 strain of P. falciparum; assay: In vitro antimalarial activity versus 3D7 P. falciparum; assay type: cell-based, Plasmodium falciparum
[2] = molecular target: T1, PfNDH2 (Plasmodium falciparum, UniProt Q8I302); assay type: biochemical; conditions: PfNDH2 enzyme
T1 sequence (Q8I302 1-533): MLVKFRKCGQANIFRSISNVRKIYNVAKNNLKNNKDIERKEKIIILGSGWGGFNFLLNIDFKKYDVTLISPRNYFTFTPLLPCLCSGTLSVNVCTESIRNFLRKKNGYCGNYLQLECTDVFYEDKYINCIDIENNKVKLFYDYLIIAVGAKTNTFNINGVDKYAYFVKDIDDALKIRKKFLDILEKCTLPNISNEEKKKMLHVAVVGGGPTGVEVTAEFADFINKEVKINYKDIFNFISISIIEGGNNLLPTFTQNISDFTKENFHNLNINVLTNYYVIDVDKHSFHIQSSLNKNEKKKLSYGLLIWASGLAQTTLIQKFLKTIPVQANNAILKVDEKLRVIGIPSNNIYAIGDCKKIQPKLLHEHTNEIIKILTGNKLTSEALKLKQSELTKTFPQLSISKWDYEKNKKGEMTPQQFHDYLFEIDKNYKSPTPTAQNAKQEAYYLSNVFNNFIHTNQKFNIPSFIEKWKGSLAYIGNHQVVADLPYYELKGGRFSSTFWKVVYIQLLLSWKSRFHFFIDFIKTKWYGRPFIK

[3] = system: TM90C2B strain of P. falciparum; assay: In vitro antimalarial activity versus atovaquone resistant TM90C2B; assay type: cell-based; conditions: Plasmodium falciparum, read-out: IC50 in TM90C2B strain

Q: How did the IC50 ([1]; Plasmodium falciparum, 3D7, read-out: IC50 (nM) 3D7 ± SD, 3D7 strain of P. falciparum, in vitro) turn out when `COc1cccc2[nH]c(-c3ccc(Cc4ccc(OC(F)(F)F)cc4)cc3)c(C)c(=O)c12` [6m] was run?
A: > 350 nM

Q: Which “IC50 (nM) PfNDH2” value [2] does the source give for `O=c1c(-c2ccc(Oc3ccc(OC(F)(F)F)cc3)cc2)c(CO)[nH]c2ccccc12` [compound 25] here?
A: shows no PfNDH2

Q: How did the IC50 [3] turn out when `O=C1C(O)=C([C@H]2CC[C@H](c3ccc(Cl)cc3)CC2)C(=O)c2ccccc21` [atovaquone] was run?
A: 12 µM

Q: Which IC50 ([1]; read-out: IC50 (nM) 3D7 ± SD, 3D7 strain of P. falciparum, in vitro) does the source give for `COc1ccc(Cc2ccc(-c3[nH]c4ccccc4c(=O)c3C)cc2)cc1` [6g] here?
A: 37 nM
